The values that follow come from patent US20230107186A1, “COBICISTAT FOR PREVENTION AND/OR TREATMENT OF CORONAVIRUS INFECTIONS” (priority 2020, published 2023).

For one series, the target named is 3CLpro (Severe acute respiratory syndrome coronavirus 2, UniProt P0DTD1). The series is described as follows: 3CLpro FRET assay. The series is classed as biochemical, SARS-CoV-2.
The subject of series [1] is SARS-CoV-2. Briefly: Inhibition of SARS-CoV-2 replication in cell lines (viral RNA by qPCR). Type of series: cell-based. A general note: In qPCR the cycle at which signal appears reflects the starting amount.
A short description of series [2]: Viability of uninfected cell lines (MTT assay). The series is classed as cell-based, human; african green monkey. As to conditions: human (Calu-3, T84); African green monkey (Vero E6); uninfected Calu-3, T84, Vero E6; 48 h; MTT; read-out: half cytotoxic concentration (CC50) range. How it is done:
(§1) D) Uninfected cell lines of lung (Calu-3), gut (T84) and kidney (Vero E6) origin were left untreated or treated with serial dilutions of cobicistat. Forty-eight hours post-treatment cellular viability was measured by MTT assay. Data, expressed as mean±SD of three independent experiments, were normalized to the untreated control and CC50 values were calculated by nonlinear regression.
(§2) Cell viability was evaluated by (3-[4,5-dimethylthiazol-2-yl]-2,5 diphenyl tetrazolium bromide) (MTT) assay and by crystal violet staining as previously described (Shytaj et al. 2020; Feoktistova, Geserick, and Leverkus 2016). Briefly, the MTT assay was conducted using the CellTiter 96® Non-Radioactive Cell Proliferation Assay (MTT) (Promega; Madison, Wis., USA). Cells were plated in a 96-well plate at a concentration of 3×10^6 cells/mL in 100 μl of medium. The MTT solution (15 μl) was added to each well and, after 2-4 h, the reaction was stopped by the addition of 100 μl of 10% SDS. Absorbance values were acquired using an Infinite 200 PRO (Tecan, Männedorf, Switzerland) multimode plate reader at 570 nm wavelength.
(§3) Data normality assumptions were tested by D'Agostino & Pearson normality test (for >3). […] Synergy scores were calculated using the SynergyFinder web-tool (Ianevski et al. 2020) using the Zero Interaction Potency (ZIP) model (Yadav et al. 2015).
For orientation: Tetrazolium dyes change colour on reduction, which living cells bring about.

In series [3] the test system is Calu-3, T84 and Vero E6 cells. Briefly: Viability of uninfected cell lines (MTT assay). Type of series: cell-based, human; african green monkey. As to conditions: cobicistat 5-10 μM. On the procedure:
as §1, §2, §3

The next series has as its target SARS-CoV-2 S-protein (Severe acute respiratory syndrome coronavirus 2, UniProt P0DTC2). The series is described as follows: Syncytia formation assay in Vero E6 cells transfected with the S-protein. Type of series: cell-based.
The test system of series [4] is SARS-CoV-2. The series is classed as cell-based. To be noted: cobicistat 5-10 μM; MTT and crystal violet; Calu-3, T84, Vero E6.
Another series has as its target HIV-1 protease (Human immunodeficiency virus type 1 group M subtype B, UniProt P04585). To be noted: read-out: EC50 against the HIV-1 protease; selleckchem product page; cited from earlier work.
The conditions of series [5]: humans, standard dosing 150 mg/day; cited from earlier work.
The conditions of series [6]: mice, 50 mg/Kg; cited from earlier work.

The structures appear in SMILES notation. Where a SMILES comes first, the peptide text is derived from it. The star is where a group is joined. Cbz = O=C(OCc1ccccc1)* Bounds are passed on as bounds.

Turning to `CC(C)C[C@@H](C=O)NC(=O)[C@H](CC(C)C)NC(=O)[C@H](CC(C)C)NC(=O)OCc1ccccc1` [MG-132] (Cbz-Leu-Leu-Leu-aldehyde), the “effect on catalytic activity of 3CLpro” value on 3CLpro is “potently reduced the catalytic activity”.

As for `CC(C)c1nc(CN(C)C(=O)N[C@@H](CCN2CCOCC2)C(=O)N[C@H](CC[C@H](Cc2ccccc2)NC(=O)OCc2cncs2)Cc2ccccc2)cs1` [Cobicistat, 1,3-thiazol-5-ylmethyl [(2R,5R)-5-{[(2S)-2-({[(2-isopropyl-1,3-thiazol-4-yl)methyl](methyl)carbamoyl}amino)-4-(morpholin-4-yl)butanoyl]amino}-1,6-diphenylhexan-2-yl]carbamate], in the series on SARS-CoV-2 [1] (Calu-3, Vero E6, T84, MOI 0.05 and 0.5, treated 2 h post-infection), the “viral RNA release in supernatant” value is listed as “dose dependent effect in decreasing viral RNA release”. Besides, the “virus RNA amounts by qPCR, intracellular and supernatant” value with SARS-CoV-2 [1] (Calu-3 cells, time course, low micromolar concentrations) was “dose dependent inhibitory effect”. Further, the IC50 in the series with SARS-CoV-2 [1] (Severe acute respiratory syndrome coronavirus 2, 48 h, read-out: range of IC50 concentrations) is 0.58 to 8.76 µM. Besides, the CC50 at 48 h in series [2] was 38.7 to 53 µM. Moreover, the “tolerability by uninfected cells” value in [3] is recorded as “well tolerated”. Further, the “effect on catalytic activity of 3CLpro” value on 3CLpro is “inactive”. For the same molecule, the “concentration range with effect in syncytia assay” value at SARS-CoV-2 S-protein was 5 to 10 µM. Further, on SARS-CoV-2 S-protein (24 h post transfection), the syncytia formation result is recorded as “decreased syncytia formation”. For the same molecule, the “viability of infected cells” value in the series with SARS-CoV-2 [4] is listed as “partially rescue viability of infected cells”. In addition, at HIV-1 protease, the EC50 was over 30 µM. Moreover, in series [5], the maximum plasma concentrations result is on record as “≈ 1 μM”. Also, the “plasma levels compared with in vitro IC50 and CC50” value in series [6] is “clearly above all IC50 values calculated in our experiments, while remaining below the CC50 concentrations”.

The EC50 is the concentration at which the effect is half-maximal.
